Test results from ChEMBL document CHEMBL1201862, “PubChem BioAssay data set” (2004).
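Method: 48-hour compound exposure of cells in 96-well plates, five concentrations, linear interpolation of endpoints. Here, GI50 denotes the concentration required for 50% inhibition of growth.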 Calls of active or inactive are those of the source. Cut-off read from the data, not from the text of the source: active = GI50 up to about 1.1 µM and inactive = higher.

Tests used:
Assay in all cases: NCI tumour cell line growth inhibition, 48 h
786-0 = test system: 786-0
A498 = test system: A498
A549 = test system: A549
ACHN = test system: ACHN
CAKI-1 = test system: CAKI-1
CCRF-CEM = test system: CCRF-CEM
COLO 205 = test system: COLO 205
DLD-1 = test system: DLD-1
DMS-114 = test system: DMS-114
DMS-273 = test system: DMS-273
EKVX = test system: EKVX
HCC 2998 = test system: HCC 2998
HCT-116 = test system: HCT-116
HCT-15 = test system: HCT-15
HL-60 = test system: HL-60
HOP-62 = test system: HOP-62
HOP-92 = test system: HOP-92
HT-29 = test system: HT-29
IGROV-1 = test system: IGROV-1
K562 = test system: K562
KM-20L2 = test system: KM-20L2
KM12 = test system: KM12
LOX IMVI = test system: LOX IMVI
LXFL 529 = test system: LXFL 529
M14 = test system: M14
MOLT-4 = test system: MOLT-4
Malme-3M = test system: Malme-3M
NCI-H226 = test system: NCI-H226
NCI-H23 = test system: NCI-H23
NCI-H460 = test system: NCI-H460
NCI-H522 = test system: NCI-H522
OVCAR-3 = test system: OVCAR-3
OVCAR-4 = test system: OVCAR-4
OVCAR-5 = test system: OVCAR-5
OVCAR-8 = test system: OVCAR-8
RPMI-8226 = test system: RPMI-8226
RXF 393 = test system: RXF 393
RXF 631 = test system: RXF 631
SF-268 = test system: SF-268
SF-295 = test system: SF-295
SF-539 = test system: SF-539
SK-MEL-28 = test system: SK-MEL-28
SK-MEL-5 = test system: SK-MEL-5
SK-OV-3 = test system: SK-OV-3
SN12C = test system: SN12C
SNB-19 = test system: SNB-19
SNB-75 = test system: SNB-75
SNB-78 = test system: SNB-78
SR = test system: SR
SW-620 = test system: SW-620
TK-10 = test system: TK-10
U-251 = test system: U-251
UACC-257 = test system: UACC-257
UACC-62 = test system: UACC-62
UO-31 = test system: UO-31
XF498 = test system: XF498
BT-549 = test system: BT-549
DU-145 = test system: DU-145
HOP-18 = test system: HOP-18
Hs-578T = test system: Hs-578T
M19-MEL = test system: M19-MEL
MCF7 = test system: MCF7
MDA-MB-231 = test system: MDA-MB-231
MDA-MB-435 = test system: MDA-MB-435
MDA-N = test system: MDA-N
NCI/ADR-RES = test system: NCI/ADR-RES
PC-3 = test system: PC-3
SK-MEL-2 = test system: SK-MEL-2
T47D = test system: T47D

## CCCCCCCCCCCCCCCC(=O)NC1CCc2cc(O)c(O)c(O)c2-c2ccc(SC)c(=O)cc21 (centres undefined)
786-0
  GI50: 16.6 µM (inactive)
A498
  GI50: 19.3 µM (inactive)
A549
  GI50: 1.49 µM (inactive)
ACHN
  GI50: 8.04 µM (inactive)
CAKI-1
  GI50: 13 µM (inactive)
CCRF-CEM
  GI50: 3.93 µM (inactive)
COLO 205
  GI50: 5.21 µM (inactive)
DLD-1
  GI50: 7.94 µM (inactive)
DMS-114
  GI50: 1.94 µM (inactive)
DMS-273
  GI50: 4.16 µM (inactive)
EKVX
  GI50: 19 µM (inactive)
HCC 2998
  GI50: 4.01 µM (inactive)
HCT-116
  GI50: 3.86 µM (inactive)
HCT-15
  GI50: 6.03 µM
HL-60
  GI50: 3.35 µM (inactive)
HOP-62
  GI50: 9.59 µM (inactive)
HOP-92
  GI50: 2.51 µM (inactive)
HT-29
  GI50: 13.1 µM (inactive)
IGROV-1
  GI50: 8.39 µM (inactive)
K562
  GI50: 1.89 µM (inactive)
KM-20L2
  GI50: 15.7 µM (inactive)
KM12
  GI50: 6.22 µM (inactive)
LOX IMVI
  GI50: 12 µM (inactive)
LXFL 529
  GI50: 1.44 µM (inactive)
M14
  GI50: 8.02 µM (inactive)
MOLT-4
  GI50: 9.44 µM (inactive)
Malme-3M
  GI50: 10.4 µM (inactive)
NCI-H226
  GI50: 10.6 µM (inactive)
NCI-H23
  GI50: 1.37 µM (inactive)
NCI-H460
  GI50: 5.77 µM (inactive)
NCI-H522
  GI50: 2.37 µM (inactive)
OVCAR-3
  GI50: 5.28 µM (inactive)
OVCAR-4
  GI50: 10.3 µM (inactive)
OVCAR-5
  GI50: 12.9 µM (inactive)
OVCAR-8
  GI50: 7.67 µM (inactive)
RPMI-8226
  GI50: 1.61 µM (inactive)
RXF 393
  GI50: 1.46 µM (inactive)
RXF 631
  GI50: 13.2 µM (inactive)
SF-268
  GI50: 5.28 µM (inactive)
SF-295
  GI50: 3.7 µM (inactive)
SF-539
  GI50: 2.07 µM (inactive)
SK-MEL-28
  GI50: 6.67 µM (inactive)
SK-MEL-5
  GI50: 4.42 µM (inactive)
SK-OV-3
  GI50: 14.4 µM (inactive)
SN12C
  GI50: 12.9 µM (inactive)
SNB-19
  GI50: 9.29 µM (inactive)
SNB-75
  GI50: 2.62 µM (inactive)
SNB-78
  GI50: 8.55 µM (inactive)
SR
  GI50: 2.79 µM (inactive)
SW-620
  GI50: 4.84 µM (inactive)
TK-10
  GI50: 15.8 µM (inactive)
U-251
  GI50: 1.29 µM (inactive)
UACC-257
  GI50: 11.1 µM (inactive)
UACC-62
  GI50: 2.9 µM (inactive)
UO-31
  GI50: 8.22 µM (inactive)
XF498
  GI50: 7.26 µM (inactive)

## C=CCc1cc(-c2cc(CC=C)c(O)c(CN(CCCl)CCCl)c2)cc(CN(CCCl)CCCl)c1O
786-0
  GI50: 7.94 µM (inactive)
A498
  GI50: 20.7 µM (inactive)
A549
  GI50: 13.7 µM (inactive)
ACHN
  GI50: 7.69 µM (inactive)
BT-549
  GI50: 14.3 µM (inactive)
CAKI-1
  GI50: 8.22 µM (inactive)
CCRF-CEM
  GI50: 3.03 µM (inactive)
COLO 205
  GI50: 17.7 µM (inactive)
DLD-1
  GI50: 16.4 µM (inactive)
DMS-273
  GI50: 7.83 µM (inactive)
DU-145
  GI50: 15.7 µM (inactive)
EKVX
  GI50: 16 µM (inactive)
HCC 2998
  GI50: 15.6 µM (inactive)
HCT-116
  GI50: 11.1 µM (inactive)
HCT-15
  GI50: 15.5 µM
HL-60
  GI50: 3.09 µM (inactive)
HOP-18
  GI50: 25.2 µM (inactive)
HOP-62
  GI50: 14 µM (inactive)
HOP-92
  GI50: 15.4 µM (inactive)
HT-29
  GI50: 13.7 µM (inactive)
Hs-578T
  GI50: 37 µM (inactive)
IGROV-1
  GI50: 16.2 µM (inactive)
K562
  GI50: 32.8 µM (inactive)
KM-20L2
  GI50: 16.6 µM (inactive)
KM12
  GI50: 18.2 µM (inactive)
LOX IMVI
  GI50: 10.3 µM (inactive)
LXFL 529
  GI50: 12.2 µM (inactive)
M14
  GI50: 15.4 µM (inactive)
M19-MEL
  GI50: 14.5 µM (inactive)
MCF7
  GI50: 5.77 µM (inactive)
MDA-MB-231
  GI50: 18.6 µM (inactive)
MDA-MB-435
  GI50: 15.4 µM (inactive)
MDA-N
  GI50: 15.2 µM (inactive)
MOLT-4
  GI50: 2.52 µM (inactive)
Malme-3M
  GI50: 18.7 µM (inactive)
NCI-H226
  GI50: 15.6 µM (inactive)
NCI-H23
  GI50: 6.89 µM (inactive)
NCI-H460
  GI50: 3.79 µM (inactive)
NCI-H522
  GI50: 10.9 µM (inactive)
NCI/ADR-RES
  GI50: 18.9 µM (inactive)
OVCAR-3
  GI50: 15.2 µM (inactive)
OVCAR-4
  GI50: 17.6 µM (inactive)
OVCAR-5
  GI50: 18.3 µM (inactive)
OVCAR-8
  GI50: 12.1 µM (inactive)
PC-3
  GI50: 9.08 µM (inactive)
RPMI-8226
  GI50: 12.2 µM (inactive)
RXF 393
  GI50: 12.8 µM (inactive)
RXF 631
  GI50: 14.1 µM (inactive)
SF-268
  GI50: 12.7 µM (inactive)
SF-295
  GI50: 13 µM (inactive)
SF-539
  GI50: 12.2 µM (inactive)
SK-MEL-28
  GI50: 17.8 µM (inactive)
SK-MEL-2
  GI50: 22.1 µM (inactive)
SK-MEL-5
  GI50: 16.8 µM (inactive)
SK-OV-3
  GI50: 18.9 µM (inactive)
SN12C
  GI50: 9.68 µM (inactive)
SNB-19
  GI50: 19.1 µM (inactive)
SNB-75
  GI50: 16.3 µM (inactive)
SNB-78
  GI50: 35.4 µM (inactive)
SR
  GI50: 0.627 µM (active)
SW-620
  GI50: 12.3 µM (inactive)
T47D
  GI50: 8.55 µM (inactive)
TK-10
  GI50: 19.3 µM (inactive)
U-251
  GI50: 10.8 µM (inactive)
UACC-257
  GI50: 16 µM (inactive)
UACC-62
  GI50: 7.89 µM (inactive)
UO-31
  GI50: 16.3 µM (inactive)
XF498
  GI50: > 10 µM (inactive)

## Cc1cc(C)c(C(=O)O)c(SSc2cc(C)cc(C)c2C(=O)O)c1
786-0
  GI50: > 100 µM (inactive)
A498
  GI50: > 100 µM (inactive)
A549
  GI50: > 100 µM (inactive)
ACHN
  GI50: > 100 µM (inactive)
CAKI-1
  GI50: > 100 µM (inactive)
CCRF-CEM
  GI50: 57.7 µM (inactive)
COLO 205
  GI50: > 100 µM (inactive)
DLD-1
  GI50: > 100 µM (inactive)
DMS-114
  GI50: > 100 µM (inactive)
DMS-273
  GI50: > 100 µM (inactive)
EKVX
  GI50: > 100 µM (inactive)
HL-60
  GI50: > 100 µM (inactive)
HOP-62
  GI50: > 100 µM (inactive)
HOP-92
  GI50: > 100 µM (inactive)
HT-29
  GI50: > 100 µM (inactive)
K562
  GI50: > 100 µM (inactive)
KM-20L2
  GI50: > 100 µM (inactive)
KM12
  GI50: > 100 µM (inactive)
LOX IMVI
  GI50: > 100 µM (inactive)
LXFL 529
  GI50: > 100 µM (inactive)
M19-MEL
  GI50: > 100 µM (inactive)
MOLT-4
  GI50: > 100 µM (inactive)
Malme-3M
  GI50: > 100 µM (inactive)
NCI-H226
  GI50: > 100 µM (inactive)
NCI-H23
  GI50: > 100 µM (inactive)
NCI-H460
  GI50: > 100 µM (inactive)
NCI-H522
  GI50: > 100 µM (inactive)
OVCAR-4
  GI50: > 100 µM (inactive)
OVCAR-5
  GI50: > 100 µM (inactive)
OVCAR-8
  GI50: > 100 µM (inactive)
RXF 393
  GI50: > 100 µM (inactive)
RXF 631
  GI50: > 100 µM (inactive)
SF-268
  GI50: > 100 µM (inactive)
SF-295
  GI50: > 100 µM (inactive)
SF-539
  GI50: > 100 µM (inactive)
SK-MEL-28
  GI50: > 100 µM (inactive)
SK-MEL-2
  GI50: > 100 µM (inactive)
SK-MEL-5
  GI50: > 100 µM (inactive)
SK-OV-3
  GI50: > 100 µM (inactive)
SN12C
  GI50: > 100 µM (inactive)
SNB-19
  GI50: > 100 µM (inactive)
SNB-78
  GI50: > 100 µM (inactive)
SR
  GI50: > 100 µM (inactive)
SW-620
  GI50: > 100 µM (inactive)
TK-10
  GI50: > 100 µM (inactive)
U-251
  GI50: > 100 µM (inactive)
UACC-257
  GI50: > 100 µM (inactive)
UACC-62
  GI50: > 100 µM (inactive)
UO-31
  GI50: > 100 µM (inactive)
XF498
  GI50: > 100 µM (inactive)
